Reference: patent publication US20120122780A1 (Ardea Biosciences Inc., priority 2009, published 2012)

Each molecule was assayed against T1, hURAT1 Transporter (Homo sapiens, UniProt Q96S37) (assay: Uric Acid Uptake Assay (URAT-1 EC50)). Details: HEK293/urat1 cells, C14 uric acid 40 μM, 10 minutes at room temperature.
T1 construct: Full-length human URAT1 gene (SLC22Al2) was subcloned from plasmid pCMV6-XL5 (Origene) into eukaryotic expression plasmid pCMV6/Neo; expressed in transfected cells
T1 sequence (Q96S37 1-553): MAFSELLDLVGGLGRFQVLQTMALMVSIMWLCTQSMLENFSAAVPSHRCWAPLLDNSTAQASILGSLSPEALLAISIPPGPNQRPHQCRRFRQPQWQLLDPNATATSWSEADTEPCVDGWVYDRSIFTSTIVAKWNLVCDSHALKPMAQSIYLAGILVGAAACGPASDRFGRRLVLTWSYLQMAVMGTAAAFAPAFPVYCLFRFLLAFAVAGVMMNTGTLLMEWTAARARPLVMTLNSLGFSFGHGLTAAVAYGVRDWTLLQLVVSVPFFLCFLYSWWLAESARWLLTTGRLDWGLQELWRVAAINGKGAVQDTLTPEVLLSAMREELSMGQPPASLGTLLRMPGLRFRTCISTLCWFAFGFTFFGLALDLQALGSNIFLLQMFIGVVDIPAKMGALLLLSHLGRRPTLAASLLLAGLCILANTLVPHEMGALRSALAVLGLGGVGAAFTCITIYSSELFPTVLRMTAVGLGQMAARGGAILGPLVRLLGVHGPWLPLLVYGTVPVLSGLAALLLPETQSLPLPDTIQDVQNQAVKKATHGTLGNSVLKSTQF
Format: cell-based
Text: Creation of Stable Cell Lines Expressing hURAT1 Transporter: Full-length human URAT1 gene (SLC22Al2) was subcloned from plasmid pCMV6-XL5 (Origene) into eukaryotic expression plasmid pCMV6/Neo (Origene) using Not I restriction sites. Gene sequencing confirmed the sequence of hURAT1 as outlined in Genbank (Accession #NM_144585.2). HEK293 human embryonic kidney cells (ATCC# CRL-1573) were propagated in EMEM tissue culture medium as described by ATCC in an atmosphere of 5% CO2 and 95% air. Transfections of HEK293 cells with the pCMV6/Neo/URAT1 construct were performed using L2000 transfection reagent (Invitrogen) as described by the manufacturer. After 24 h the transfected cells were split into 10 cm tissue culture plates and grown for 1 day after which the medium was replaced with fresh growth medium containing G418 (Gibco) at 0.5 mg/ml final concentration. Drug-resistant colonies were selected after approximately 8 days and then tested for ^14C-uric acid transport activity. The HEK293/urat1 cells are plated on Poly-D-Lysine Coated 96-well Plates at a density of 75,000 cells per well. Cells were grown overnight (20-26 hours) at 37° C. in an incubator. Plates were allowed to come to room temperature and media was washed out with one wash of 250 μl of Wash Buffer (125 mM Na Gluconate, 10 mM Hepes ph 7.3). Compound or vehicle is added in assay buffer with C14 Uric Acid for a final concentration of 40 μM Uric Acid with a specific activity of 54 mCi/mmol Assay Buffer is 125 mM Sodium Gluconate, 4.8 mM Potassium Gluconate, 1.2 mM Potassium phosphate, monobasic, 1.2 mM magnesium sulfate, 1.3 mM Ca Gluconate, 5.6 mM Glucose, 25 mM HEPES, pH 7.3. Plates were incubated at room temperature for 10 minutes then washed 3 times with 50 μWash Buffer and 3 times with 250 μl Wash Buffer. Microscint 20 Scintillation Fluid was added and plates were incubated overnight at 45° C. to equilibrate. Plates are then read on the TopCount Plate Reader and an EC50 value generated. (See Enomoto et al, Nature, 2002, 417, 447-451 and Anzai et al, J. Biol. Chem., 2004, 279, 45942-45950.)
Compounds prepared as described above, were examined according to the procedure described herein and EC50 values generated. The table below summarizes the activity of the compounds in the Uric Acid Uptake Assay, wherein

EC50 | SMILES
> 20 µM | CC(C)(Oc1nnnn1-c1cccc2ccccc12)C(=O)O [Example 6-3]
> 20 µM | O=C(O)CSc1cnnn1-c1cccc2ccccc12 [Example 5A-1]
> 20 µM | O=C(O)CSc1nnnn1-c1cccc2ccccc12 [6-1 (step D), 2-(1-(naphthalen-1-yl)-1H-tetrazol-5-ylthio)acetic acid]
5 to 20 µM | CCOC(=O)CSc1nnnn1-c1cccc2ccccc12 [6-1 (step C), Ethyl 2-(1-(naphthalen-1-yl)-1H-tetrazol-5-ylthio) acetate]
